Source: patent US7371766B2, “Curcumin analogs with anti-tumor and anti-angiogenic properties” (Emory University, priority 1999, dated 2008)
Read-outs that look alike come from different tables or passages of the source.

Key:
[1] = test system: Vascular Endothelial Growth Factor (VEGF) production by human melanoma cell line RPMI-7951; assay: VEGF ELISA, RPMI-7951; conditions: for VEGF / VEGF ELISA: RPMI-7951; for VEGF ELISA: DMSO control 3713
RPMI-7951 human melanoma = assay: Neutral Red Assay, cell viability, RPMI-7951; conditions: for Cell Viability: RPMI-7951, DMSO = 100; for viability at 5 µM / viability at 20 µM: Homo sapiens
Description: RPMI-795 1, MDA-MB-231 and MDA-MB-435 cell lines were cultured in MEM-alpha medium (GIBCO-BRL, Long Island, N.Y.) containing 10% fetal bovine serum (RPMI-7951, MDA-MB-231) or 5% FBS (MDA-MB-435) at 37° C. and under 5% CO2/95% air. […] The cells were cultured in 48 well plates in all of the experiments described.
Neutral Red Assay was utilized to determine the effect of the compounds of the present invention on cell viability. Neutral Red was purchased from GIBCO-BRL (Long Island, N.Y.). Cells were plated at a concentration of 20,000 cells/well and cultured overnight. Compounds or vehicle (DMSO 0.1%) were then added and the plates were incubated for 72 hours. Supernatant from each well was either aspirated or collected and media containing Neutral Red (GIBCO-BRL, Long Island, N.Y.) at a concentration of 15 μl/ml was then added to each well. The plates were then incubated at 37° C. for 30 minutes. Next, the cells were washed with twice with PBS and alcoholic-HCl (0.5N—HCl/35% ethanol) was added to each well. The plates were then placed on a plate shaker until all residues were solubilized (pink color). The solubilized mixtures were then transferred to a 96 well plate and the absorbances were read on a micro-test plate reader at a wavelength of 570 nm.
Cell viability was determined by Neutral Red Assay.

[2] = test system: Tissue Factor (TF) production by human melanoma cell line RPMI-7951; assay: TF ELISA, RPMI-7951; assay type: cell-based
Description: IMUBIND Tissue Factor ELISA Kit (American Diagnostica Inc, Greenwich, Conn.) was used to determine TF concentration in each sample. The ELISA was carried out according to manufacturer's procedure.

[3] = test system: Vascular Endothelial Growth Factor (VEGF) production by human prostate cancer cell line DU-145; assay: VEGF ELISA, DU-145; assay type: cell-based; conditions: for VEGF (% of DMSO): DMSO = 100%
[4] = test system: Vascular Endothelial Growth Factor (VEGF) production by human prostate cancer cell line PC-3; assay: VEGF ELISA, PC-3; assay type: cell-based; conditions: for VEGF (% of DMSO): DMSO = 100%
[5] = 5 μM, DMSO control 4197 (EF-25: 1045)
[6] = Table 5, 20 μM, DMSO control 7054
[7] = 20 μM, mean of triplicate and S.D., DMSO 18760 ± 2633
[8] = Table 4, 20 μM, mean of triplicate and S.D.
[9] = 20 μM, mean of triplicate and S.D., DMSO 2103 ± 100
[10] = Homo sapiens, RPMI-7951, 72 h, read-out: VEGF
[11] = RPMI-7951, 72 h, read-out: Neutral Red Uptake, %
[12] = RPMI-7951, read-out: Cell Viability

| SMILES | VEGF ([1]; 20 μM, DMSO = 100) | VEGF ([1]; 20 μM, DMSO control 4197) | Cell Viability (RPMI-7951 human melanoma; 20 μM) | VEGF ([3]; Table 4, 20 μM, DMSO = 100) | VEGF [3, 8] | VEGF ([4]; Table 4, 20 μM, DMSO = 100) | VEGF [4, 8] | also measured |
| --- | --- | --- | --- | --- | --- | --- | --- | --- |
| COc1ccc(C=CC(=O)C=Cc2ccc(OC)cc2)cc1 [BA-4] | 80% | 3348 pg/mL | 84% |  |  |  |  | VEGF ([1]; 5 μM, DMSO = 100): 112%; VEGF [1, 5]: 4708 pg/mL; Cell Viability (RPMI-7951 human melanoma; 5 μM): 90%; TF ([2]; 5 μM, DMSO = 100): 100%; TF ([2]; 20 μM, DMSO = 100): 30%; TF ([2]; Table 5, 5 μM, DMSO control 7054): 7043 pg/mL; TF [2, 6]: 2120 pg/mL |
| COc1ccc(CCC(O)CCc2ccc(OC)c(OC)c2)cc1OC [B] |  |  |  | 82% | 15321 ± 5607 pg/mL | 103% | 2168 ± 279 pg/mL | VEGF (% of DMSO) ([3]; 20 μM): (82%); VEGF [3, 7]: 15321 ± 5607 pg/mL; VEGF (% of DMSO) ([4]; 20 μM): (99%); VEGF [4, 9]: 2168 ± 279 pg/mL |
| CN(C)/N=N/c1[nH]cnc1C(N)=O [Decabazine, Decarbazine, reference compound] |  | 1293 pg/mL |  |  |  |  |  | activity at 5 µM [1, 10]: 28%; activity at 20 µM [1, 10]: 31%; VEGF ELISA ([1]; 5 μM): 1136 pg/ml/well; VEGF [1, 5]: 1171 pg/mL; VEGF ELISA ([1]; 20 μM): 1531 pg/ml/well; viability at 5 µM (RPMI-7951 human melanoma; [11]): 100%; viability at 20 µM (RPMI-7951 human melanoma; [11]): 100%; viability at 5 µM (RPMI-7951 human melanoma; [12]): 91%; viability at 20 µM (RPMI-7951 human melanoma; [12]): 99% |
| O=S(=O)(NCc1ccccc1)NCc1ccccc1 [Compound A272] |  |  |  | 129% | 24155 ± 4635 pg/mL | 89% | 1864 ± 339 pg/mL |  |
| COc1ccc(CNS(=O)(=O)NCc2ccc(OC)c(OC)c2)cc1OC [Compound A277a] |  |  |  | 146% | 27403 ± 3143 pg/mL | 95% | 2007 ± 30 pg/mL |  |
| COc1ccc(CCC(=O)CCc2ccc(OC)c(OC)c2)cc1OC [A] |  |  |  | 142% | 26565 ± 9818 pg/mL | 82% | 1729 ± 59 pg/mL | VEGF (% of DMSO) ([3]; 20 μM): (142%); VEGF [3, 7]: 26565 ± 9818 pg/mL; VEGF (% of DMSO) ([4]; 20 μM): (82%); VEGF [4, 9]: 1729 ± 59 pg/mL |
| COc1ccc(C=CC(=O)c2ccccc2)cc1OC [BA-3] | 48% | 2035 pg/mL | 102% |  |  |  |  | VEGF ([1]; 5 μM, DMSO = 100): 116%; VEGF [1, 5]: 4860 pg/mL; Cell Viability (RPMI-7951 human melanoma; 5 μM): 93%; TF ([2]; 20 μM, DMSO = 100): 30%; TF [2, 6]: 2088 pg/mL |
| COc1ccc(CNC(=O)NCc2ccc(OC)c(OC)c2)cc1OC [Compound A277b] |  |  |  | 145% | 27124 ± 1346 pg/mL | 89% | 1868 ± 38 pg/mL |  |
| COc1ccccc1C1CC(=O)CC(c2ccccc2OC)O1 (stereo not shown) [BA-8] |  |  |  | 218% | 40883 ± 6639 pg/mL | 78% | 1648 ± 229 pg/mL | VEGF (% of DMSO) ([3]; 20 μM): (218%); VEGF [3, 7]: 40883 ± 6639 pg/mL; VEGF (% of DMSO) ([4]; 20 μM): (78%); VEGF [4, 9]: 1648 ± 229 pg/mL |
| O=C(C=Cc1ccc(F)c(F)c1)C=Cc1ccc(F)c(F)c1 [EF10, 1,5-Bis(3,4-difluorophenyl)penta-1,4-dien-3-one] |  | 217 pg/mL |  |  |  |  |  | activity at 20 µM [1, 10]: 5%; VEGF ELISA ([1]; 20 μM): 257 pg/ml/well; viability at 20 µM (RPMI-7951 human melanoma; [11]): 8%; viability at 20 µM (RPMI-7951 human melanoma; [12]): 54% |
| COc1ccc(CCC(=O)CCc2ccc(OC)cc2)cc1 [BA-1] |  |  |  |  |  |  |  | TF ([2]; 20 μM, DMSO = 100): 95%; TF [2, 6]: 6669 pg/mL |
| [O-][S+](/C=C/c1ccccc1)/C=C/c1ccccc1 [EF13, E,E-3,5-Bisbenzylidenesulfoxide] | 53% |  | 92% |  |  |  |  |  |
| COc1cc(CC2CCCC(Cc3ccc(O)c(OC)c3)C2O)ccc1O (stereo not shown) [Compound A231L] | 25% |  | 77% | 149% | 27927 ± 4466 pg/mL | 80% | 1687 ± 250 pg/mL |  |
